According to patent US10428080B2, “TBK/IKK inhibitor compounds and uses thereof” (Merck Patent GmbH, priority 2015, dated 2019):
Structures can show the parent of a compound that is named as a salt.

Assays:
[1] = tested on: phosphorylation of the IRF-3 protein in MDA-MB-468 cells; experiment: pIRF3 immunocytochemistry cell based assay; conditions: Homo sapiens; MDA-MB-468 cells, Poly(I:C) stimulation; read-out: pIRF3 IC50
In short: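 MDA-MB-468 cells got compounds (10-point, 3-fold from 10 uM) for 1 h at 37 °C, then 10 ug/ml Poly(I:C) for 2 h. Fixed, permeabilized cells were immunostained for pIRF3 with AlexaFluor488 and counterstained with PI. % phosphorylation was read by laser scanning cytometry, and IC50 curves were fitted.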

IKKε = target: T1, IKKε (Homo sapiens, UniProt Q14164); experiment: IKKe Biochemical Assay; conditions: read-out: IKKε IC50
T1 sequence (Q14164 1-716): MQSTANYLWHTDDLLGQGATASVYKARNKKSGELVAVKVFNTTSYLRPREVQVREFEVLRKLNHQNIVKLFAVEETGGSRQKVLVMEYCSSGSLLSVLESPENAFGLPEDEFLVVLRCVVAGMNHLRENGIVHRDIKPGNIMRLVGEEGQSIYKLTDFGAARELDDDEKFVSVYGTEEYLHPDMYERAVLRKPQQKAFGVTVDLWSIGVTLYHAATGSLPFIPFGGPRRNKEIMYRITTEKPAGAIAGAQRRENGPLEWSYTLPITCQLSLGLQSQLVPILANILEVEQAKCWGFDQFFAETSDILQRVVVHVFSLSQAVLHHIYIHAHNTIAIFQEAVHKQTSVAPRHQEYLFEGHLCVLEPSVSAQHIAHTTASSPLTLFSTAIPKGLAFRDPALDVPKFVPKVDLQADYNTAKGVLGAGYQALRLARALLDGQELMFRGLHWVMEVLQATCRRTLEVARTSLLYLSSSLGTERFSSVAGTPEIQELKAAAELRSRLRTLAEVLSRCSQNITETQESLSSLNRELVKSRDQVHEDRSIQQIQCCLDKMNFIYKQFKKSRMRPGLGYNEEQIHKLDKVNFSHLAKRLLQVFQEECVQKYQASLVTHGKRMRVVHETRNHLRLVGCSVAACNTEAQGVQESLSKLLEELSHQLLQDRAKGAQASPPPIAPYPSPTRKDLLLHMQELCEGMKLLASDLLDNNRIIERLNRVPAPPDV
In short: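 Recombinant IKKε and substrate were incubated with compound (10-point 1:4 series, top 30 uM final, 1% DMSO) for 90 min at 25° C, then stopped. Substrate-to-product conversion was read by LabChip microfluidic mobility shift; 10 uM staurosporine served as full-inhibition wells.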

TBK1 = target: T2, TBK1 (Homo sapiens, UniProt Q9UHD2); experiment: TBK Biochemical Assay; conditions: read-out: TBK1 IC50
T2 sequence (Q9UHD2 1-729): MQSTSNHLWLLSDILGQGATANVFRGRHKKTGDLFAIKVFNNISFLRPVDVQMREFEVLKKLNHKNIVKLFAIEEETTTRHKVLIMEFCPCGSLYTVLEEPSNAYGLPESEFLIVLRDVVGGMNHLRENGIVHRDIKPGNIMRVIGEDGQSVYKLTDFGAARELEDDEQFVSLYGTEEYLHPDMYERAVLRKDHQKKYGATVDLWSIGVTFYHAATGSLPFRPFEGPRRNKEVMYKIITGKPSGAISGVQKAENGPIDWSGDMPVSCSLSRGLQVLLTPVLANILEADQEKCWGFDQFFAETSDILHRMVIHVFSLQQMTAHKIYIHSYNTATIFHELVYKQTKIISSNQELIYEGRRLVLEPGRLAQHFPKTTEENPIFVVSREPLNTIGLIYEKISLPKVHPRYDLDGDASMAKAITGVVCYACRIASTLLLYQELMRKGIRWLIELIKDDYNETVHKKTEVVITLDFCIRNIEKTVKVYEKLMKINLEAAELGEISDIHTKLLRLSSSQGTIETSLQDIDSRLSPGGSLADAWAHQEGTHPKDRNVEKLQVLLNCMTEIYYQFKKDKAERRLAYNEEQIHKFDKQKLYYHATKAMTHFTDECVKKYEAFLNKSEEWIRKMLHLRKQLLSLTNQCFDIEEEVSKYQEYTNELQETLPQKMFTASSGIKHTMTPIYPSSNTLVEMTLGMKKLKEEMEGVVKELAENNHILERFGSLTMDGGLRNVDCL
In short: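 TBK1 enzyme and substrate incubated with compounds (10-point 1:4 dilution, top 30 uM final, 1% DMSO) for 90 min at 25° C, then stopped. Substrate/product peaks read by microfluidic mobility-shift (Caliper LabChip); 10 uM staurosporine as full-inhibition control.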

SMILES | IC50 [1] [nM] | IC50 (IKKε) [nM] | IC50 (TBK1) [nM]
COc1cc(C(=O)N(C)C)ccc1-c1cc2nccc(-c3ccc(OC4CCNCC4)c(C#N)c3)c2o1 [Compound 158, 4-{7-[3-Cyano-4-(piperidin-4-yloxy)-phenyl]-furo[3,2-b]pyridin-2-yl}-3-methoxy-N,N-dimethyl-benzamide Hydrochloride] | 100 to 1000 | < 100 | 100 to 1000
CN(C)C(=O)c1ccc(-c2cc3nccc(-c4ccc(OC5(C)CCOCC5)c(C#N)c4)c3o2)cc1 [Compound 159, 4-{7-[3-Cyano-4-(4-methyl-tetrahydro-pyran-4-yloxy)-phenyl]-furo[3,2-b]pyridin-2-yl}-N,N-dimethyl-benzamide] | > 5000 | 100 to 1000 | 100 to 1000
CN(C)C(=O)c1ccc(-c2cc3nccc(-c4ccc(OC5CCCOC5)c(C#N)c4)c3o2)cc1 (stereo not drawn) [Compound 160] | 1000 to 5000 | < 100 | 100 to 1000
COc1cc(C(=O)N(C)C)ccc1-c1cc2nccc(-c3cc(C#N)c(OC4CCOCC4)cn3)c2o1 [Compound 161, 4-{7-[4-Cyano-5-(tetrahydro-pyran-4-yloxy)-pyridin-2-yl]-furo[3,2-b]pyridin-2-yl}-3-methoxy-N,N-dimethyl-benzamide] | 1000 to 5000 | 100 to 1000 | 100 to 1000
COc1cc(C(=O)N(C)C)ccc1-c1cc2nccc(-c3ccc(O[C@@H]4CCCNC4)c(C#N)c3)c2o1 [Compound 163, 4-{7-[3-Cyano-4-((R)-piperidin-3-yloxy)-phenyl]-furo[3,2-b]pyridin-2-yl}-3-methoxy-N,N-dimethyl-benzamide] | 100 to 1000 | 100 to 1000 | 100 to 1000
N#Cc1cc(-c2ccnc3cc(-c4ccc(C(=O)O)cc4)oc23)ccc1OC1CCCOC1 (stereo not drawn) [Compound 166] | 100 to 1000 | < 100 | 100 to 1000
COc1ccc(-c2ccnc3cc(-c4ccc(C(=O)N(C)C)cc4)oc23)cc1C#N [Compound 167, 4-[7-(3-Cyano-4-methoxy-phenyl)-furo[3,2-b]pyridin-2-yl]-N,N-dimethyl-benzamide] | 1000 to 5000 | 100 to 1000 | 100 to 1000
CN(C)C(=O)c1ccc(-c2cc3nccc(-c4ccc(OC5CC(CO)(CCl)C5)c(C#N)c4)c3o2)cc1 (stereo not drawn) [Compound 168, 4-{7-[4-(3-Chloromethyl-3-hydroxymethyl-cyclobutoxy)-3-cyano-phenyl]-furo[3,2-b]pyridin-2-yl}-N,N-dimethyl-benzamide] | 100 to 1000 | 100 to 1000 | 100 to 1000
CN(C)C(=O)c1ccc(-c2cc3nccc(-c4ccc(OC5CCOC(C)(C)C5)c(C#N)c4)c3o2)cc1 (stereo not drawn) [Compound 170, 4-{7-[3-Cyano-4-(2,2-dimethyl-tetrahydro-pyran-4-yloxy)-phenyl]-furo[3,2-b]pyridin-2-yl}-N,N-dimethyl-benzamide] | 1000 to 5000 | 100 to 1000 | 100 to 1000
N#Cc1cc(-c2ccnc3cc(-c4ccc(C(=O)NC5CN6CCC5CC6)cc4)oc23)ccc1OC1CCCOC1 (stereo not drawn) [Compound 171] | 100 to 1000 | 100 to 1000 | 100 to 1000
CN(C)C(=O)c1ccc(-c2cc3nccc(-c4ccc(N5CC[C@H](N(C)C)C5)c(C#N)c4)c3o2)cc1 [Compound 173, 4-{7-[3-Cyano-4-((S)-3-dimethylamino-pyrrolidin-1-yl)-phenyl]-furo[3,2-b]pyridin-2-yl}-N,N-dimethyl-benzamide] | 1000 to 5000 | 100 to 1000 | 100 to 1000
CN(C)C(=O)c1ccc(-c2cc3nccc(-c4ccc(OC5CC6(COC6)C5)c(C#N)c4)c3o2)cc1 [Compound 177, 4-{7-[3-Cyano-4-(2-oxa-spiro[3.3]hept-6-yloxy)-phenyl]-furo[3,2-b]pyridin-2-yl}-N,N-dimethyl-benzamide] | 1000 to 5000 | 100 to 1000 | 100 to 1000
CN(C)C(=O)c1ccc(-c2cc3nccc(-c4ccc(N5CCC(N(C)C6CC6)C5)c(C#N)c4)c3o2)cc1 (stereo not drawn) [Compound 179, 4-(7-{3-Cyano-4-[3-(cyclopropyl-methyl-amino)-pyrrolidin-1-yl]-phenyl}-furo[3,2-b]pyridin-2-yl)-N,N-dimethyl-benzamide] | 1000 to 5000 | 100 to 1000 | 100 to 1000
CN(C)C(=O)c1ccc(-c2cc3nccc(-c4ccc(NC5CCOC6(CC6)C5)c(C#N)c4)c3o2)cc1 (stereo not drawn) [Compound 286, 4-[7-[3-cyano-4-([4-oxaspiro[2.5]octan-7-yl]amino)phenyl]furo[3,2-b]pyridin-2-yl]-N,N-dimethylbenzamide] | 1000 to 5000 | 100 to 1000 | 100 to 1000
COc1cc(C(=O)N(C)C)ccc1-c1cc2nccc(-c3ccc(OC4CCOC5(CC5)C4)c(C#N)c3)c2o1 (stereo not drawn) [Compound 290, 4-[7-(3-cyano-4-[4-oxaspiro[2.5]octan-7-yloxy]phenyl)furo[3,2-b]pyridin-2-yl]-3-methoxy-N,N-dimethylbenzamide] | 100 to 1000 | < 100 | < 100
COc1cc(C(=O)N(C)C)ccc1-c1cc2nccc(-c3ccc(C4(N5CCOCC5)CC4)c(C#N)c3)c2o1 [Compound 292, 4-(7-[3-cyano-4-[1-(morpholin-4-yl)cyclopropyl]phenyl]furo[3,2-b]pyridin-2-yl)-3-methoxy-N,N-dimethylbenzamide hydrochloride] | 100 to 1000 | 100 to 1000 | 100 to 1000
CN(C)C(=O)c1cc(F)c(-c2cc3nccc(-c4ccc(NC5CCOCC5)c(C#N)c4)c3o2)c(F)c1 [Compound 295, 4-(7-[3-cyano-4-[(oxan-4-yl)amino]phenyl]furo[3,2-b]pyridin-2-yl)-3,5-difluoro-N,N-dimethylbenzamide hydrochloride] | 1000 to 5000 | < 100 | 100 to 1000
COc1cc(C(=O)N(C)CCO)ccc1-c1cc2ncc(F)c(-c3ccc(NC4CCOCC4)c(C#N)c3)c2o1 [Compound 296, 4-(7-[3-cyano-4-[(oxan-4-yl)amino]phenyl]-6-fluorofuro[3,2-b]pyridin-2-yl)-N-(2-hydroxyethyl)-3-methoxy-N-methylbenzamide] | 100 to 1000 | < 100 | < 100
COc1cc(C(=O)N(C)CCO)ccc1-c1cc2ncc(F)c(-c3ccc(OC4CCOCC4)c(C#N)c3)c2o1 [Compound 297, 4-[7-[3-cyano-4-(oxan-4-yloxy)phenyl]-6-fluorofuro[3,2-b]pyridin-2-yl]-N-(2-hydroxyethyl)-3-methoxy-N-methylbenzamide] | 100 to 1000 | < 100 | < 100
COc1cc(C(=O)N(C)C)ccc1-c1cc2ncc(F)c(-c3ccc(OC4CCOCC4)c(C#N)c3)c2o1 [Compound 298, 4-[7-[3-cyano-4-(oxan-4-yloxy)phenyl]-6-fluorofuro[3,2-b]pyridin-2-yl]-3-methoxy-N,N-dimethylbenzamide] | 100 to 1000 | < 100 | < 100
COc1cc(C(=O)N(C)C)ccc1-c1cc2ncc(F)c(-c3ccc(NC4CCOCC4)c(C#N)c3)c2o1 [Compound 299, 4-(7-[3-cyano-4-[(oxan-4-yl)amino]phenyl]-6-fluorofuro[3,2-b]pyridin-2-yl)-3-methoxy-N,N-dimethylbenzamide] | 100 to 1000 | < 100 | < 100
